Laboratory results reported in patent US10730863B2, “Bridged bicyclic compounds as farnesoid X receptor modulators” (BRISTOL-MYERS SQUIBB COMPANY, priority 2017, dated 2020).

Target: FXR (Homo sapiens (Human), UniProt Q96RI1)
Experiment: FXR EC50 (FXR agonist activity reported with each example)
Format: cell-based

Chain of FXR (Q96RI1 262-486): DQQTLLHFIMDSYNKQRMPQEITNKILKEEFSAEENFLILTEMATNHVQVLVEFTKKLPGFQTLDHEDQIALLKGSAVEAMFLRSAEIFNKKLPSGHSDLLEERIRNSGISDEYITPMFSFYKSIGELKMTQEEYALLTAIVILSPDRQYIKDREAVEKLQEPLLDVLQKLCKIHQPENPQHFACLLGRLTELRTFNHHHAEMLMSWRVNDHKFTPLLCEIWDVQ

Row | Structure (SMILES) | EC50
1 | CC1(c2noc(C3CC3)c2COC23CCC(c4ccc5c(C(=O)O)cccc5n4)(CC2)CC3)CC1(F)F (stereo not shown) [Example 425, 2-(4-((5-cyclopropyl-3-(2,2-difluoro-1-methylcyclopropyl)isoxazol-4-yl)methoxy)bicyclo[2.2.2]octan-1-yl)quinoline-5-carboxylic acid] | 3.4 µM
2 | O=C(O)c1cc(C#CC23CCC(OCc4c(-c5c(Cl)cncc5Cl)noc4C4CC4)(CC2)CC3)c2cc[nH]c2c1 [Example 416] | 0.04 µM
3 | CN(C)c1cc(C(=O)O)nc2ccc(OCC34CCC(OCc5c(-c6c(Cl)cncc6Cl)noc5C5CC5)(CC3)CC4)cc12 [Example 330] | 1.5 µM
4 | O=C(O)c1cc(F)c2nc(C34CCC(OCc5c(-c6c(Cl)cccc6Cl)noc5C5CC5)(CC3)CC4)sc2c1 [Example 16, 2-(4-((5-cyclopropyl-3-(2,6-dichlorophenyl)isoxazol-4-yl)methoxy)bicyclo[2.2.2]octan-1-yl)-4-fluorobenzo[d]thiazole-6-carboxylic acid] | 0.036 µM
5 | O=C(O)c1ccc2nc(C34CCC(/C=C/c5c(-c6c(Cl)cccc6Cl)noc5C5CC5)(CC3)CC4)sc2c1 [Example 180, (E)-2-(4-(2-(5-cyclopropyl-3-(2,6-dichlorophenyl)isoxazol-4-yl)vinyl)bicyclo[2.2.2]octan-1-yl)benzo[d]thiazole-6-carboxylic acid] | 0.043 µM
6 | O=C(O)Cc1cccc(OCC23CCC(OCc4c(-c5c(Cl)cccc5Cl)noc4C4CC4)(CC2)CC3)c1 [Example 106, 2-(3-((4-((5-cyclopropyl-3-(2,6-dichlorophenyl)isoxazol-4-yl)methoxy)bicyclo[2.2.2]octan-1-yl)methoxy)phenyl)acetic acid] | 0.16 µM
7 | O=C(O)c1cccc(-n2cc(C34CCC(OCc5c(-c6c(Cl)cccc6Cl)noc5C5CC5)(CC3)CC4)nn2)c1 [Example 131, 3-(4-(4-((5-cyclopropyl-3-(2,6-dichlorophenyl)isoxazol-4-yl)methoxy)bicyclo[2.2.2]octan-1-yl)-1H-1,2,3-triazol-1-yl)benzoic acid] | 0.46 µM
8 | O=C(O)c1cccc(-c2noc(C34CCC(OCc5c(-c6c(Cl)cncc6Cl)noc5C5CC5)(CC3)CO4)n2)c1 [Example 206] | 0.49 µM
9 | O=C(O)c1cc(F)cc(-c2noc(C34CCC(OCc5c(-c6c(Cl)cccc6Cl)noc5C5CC5)(CC3)CO4)n2)c1 [Example 219, 3-(5-(4-((5-cyclopropyl-3-(2,6-dichlorophenyl)isoxazol-4-yl)methoxy)-2-oxabicyclo[2.2.2]octan-1-yl)-1,2,4-oxadiazol-3-yl)-5-fluorobenzoic acid] | 0.3 µM
10 | CC(C)Oc1cc(C(=O)O)nc2c(F)cc(OCC34CCC(OCc5c(-c6c(Cl)cncc6Cl)noc5C5CC5)(CC3)CC4)cc12 [Example 304, 6-((4-((5-cyclopropyl-3-(3,5-dichloropyridin-4-yl)isoxazol-4-yl)methoxy)bicyclo[2.2.2]octan-1-yl)methoxy)-8-fluoro-4-isopropoxyquinoline-2-carboxylic acid] | 0.011 µM
11 | O=C(O)c1cc(-c2noc(C34CCC(OCc5c(-c6c(Cl)cncc6Cl)noc5C5CC5)(CC3)CC4)n2)ccn1 [Example 249, 4-(5-(4-((5-cyclopropyl-3-(3,5-dichloropyridin-4-yl)isoxazol-4-yl)methoxy)bicyclo[2.2.2]octan-1-yl)-1,2,4-oxadiazol-3-yl)picolinic acid] | 0.24 µM
12 | O=C(O)c1cccc(-c2noc(C34CCC(OCc5c(-c6c(Cl)cccc6Cl)noc5C5CC5)(CC3)C4)n2)c1 [Example 221, 3-(5-((1r,4r)-4-((5-cyclopropyl-3-(2,6-dichlorophenyl)isoxazol-4-yl)methoxy)bicyclo[2.2.1]heptan-1-yl)-1,2,4-oxadiazol-3-yl)benzoic acid] | 0.3 µM
13 | O=C(O)c1cc(-c2noc(C34CCC(/C=C/c5c(-c6c(Cl)cncc6Cl)noc5C5CC5)(CC3)CO4)n2)cc(C(F)(F)F)c1 [Example 478, (E)-3-(5-(4-(2-(5-cyclopropyl-3-(3,5-dichloropyridin-4-yl)isoxazol-4-yl)vinyl)-2-oxabicyclo[2.2.2]octan-1-yl)-1,2,4-oxadiazol-3-yl)-5-(trifluoromethyl)benzoic acid] | 0.12 µM
14 | O=C(O)c1cc(C2CC2)c2cc(OCC34CCC(OCc5c(-c6c(Cl)cncc6Cl)noc5C5CC5)(CC3)CC4)ccc2n1 [Example 324, 4-cyclopropyl-6-((4-((5-cyclopropyl-3-(3,5-dichloropyridin-4-yl)isoxazol-4-yl)methoxy)bicyclo[2.2.2]octan-1-yl)methoxy)quinoline-2-carboxylic acid] | 0.022 µM
15 | O=C(O)c1ccc2cc(C(O)C34CCC(OCc5c(-c6c(Cl)cccc6Cl)noc5C5CC5)(CC3)CC4)ccc2c1 (stereo not shown) [Example 126, 6-((4-((5-cyclopropyl-3-(2,6-dichlorophenyl)isoxazol-4-yl)methoxy)bicyclo[2.2.2]octan-1-yl)(hydroxy)methyl)-2-naphthoic acid] | 0.6 µM
16 | O=C(O)c1cccc(-c2noc(C34CCC(OCc5c(-c6ccccc6C(F)(F)F)noc5C5CC5)(CC3)CC4)n2)c1 [Example 25] | 0.3 µM
17 | O=C(O)c1cncc(-c2noc(C34CCC(OCc5c(-c6ccccc6OC(F)(F)F)noc5C5CC5)(CC3)CC4)n2)c1 [Example 44] | 0.87 µM
18 | Cn1cc(C#CC23CCC(OCc4c(-c5c(Cl)cncc5Cl)noc4C4CC4)(CC2)CC3)c2ccc(C(=O)O)cc21 [Example 399] | 0.083 µM
19 | COc1cncc(Cl)c1-c1noc(C2CC2)c1COC12CCC(COc3ccc4cc(C(=O)O)cc(C5CC5)c4n3)(CC1)CC2 [Example 351, 2-((4-((3-(3-chloro-5-methoxypyridin-4-yl)-5-cyclopropylisoxazol-4-yl)methoxy)bicyclo[2.2.2]octan-1-yl)methoxy)-8-cyclopropylquinoline-6-carboxylic acid] | 0.023 µM
20 | O=C(O)c1ccc(CNC(=O)C23CCC(OCc4c(-c5c(Cl)cccc5Cl)noc4C4CC4)(CC2)CC3)cc1 [Example 141, 4-((4-((5-cyclopropyl-3-(2,6-dichlorophenyl)isoxazol-4-yl)methoxy)bicyclo[2.2.2]octane-1-carboxamido)methyl)benzoic acid] | 2.8 µM
21 | O=C(O)c1cccc2cc(OCC34CCC(OCc5c(-c6c(Cl)cncc6Cl)noc5C5CC5)(CC3)CC4)cnc12 [Example 352, 3-((4-((5-cyclopropyl-3-(3,5-dichloropyridin-4-yl)isoxazol-4-yl)methoxy)bicyclo[2.2.2]octan-1-yl)methoxy)quinoline-8-carboxylic acid] | 0.055 µM
22 | O=C(O)c1cc(C(F)(F)F)cc(C#CC23CCC(OCc4c(-c5c(Cl)cncc5Cl)noc4C4CC4)(CC2)CC3)n1 [Example 373] | 0.46 µM
23 | O=C(O)c1ccc(OCC2CC2)c2nc(C34CCC(OCc5c(-c6c(Cl)cncc6Cl)noc5C5CC5)(CC3)CC4)ccc12 [Example 392] | 0.024 µM
24 | COc1ccc(C#CC23CCC(OCc4c(-c5c(Cl)cncc5Cl)noc4C4CC4)(CC2)CC3)cc1C(=O)O [Example 367] | 0.091 µM
25 | O=C(O)c1cccc(-c2noc(C34CCC(CNc5c(-c6c(Cl)cccc6Cl)noc5C5CC5)(CC3)CC4)n2)c1 [Example 166, 3-(5-(4-(((5-cyclopropyl-3-(2,6-dichlorophenyl)isoxazol-4-yl)amino)methyl)bicyclo[2.2.2]octan-1-yl)-1,2,4-oxadiazol-3-yl)benzoic acid] | 0.58 µM
